Data from PubChem BioAssay (NCI).
Several values for one entry are separate records, joined by “and”; a condition that tells them apart may be missing. Equal entries are not always repeated.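 Following 48 hours of exposure in 96-well plates, responses at five concentrations were used to interpolate endpoints linearly. GI50: concentration for 50% inhibition of growth. At the TGI there is no net growth.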

What was measured:
Experiment in all cases: NCI-60 cell line screen, 48 h
[1] = system: SF-539 CNS
[2] = system: SR leukemia
[3] = system: CAKI-1 renal
[4] = system: SK-MEL-2 melanoma
[5] = system: OVCAR-3 ovarian
[6] = system: OVCAR-5 ovarian
[7] = system: HCC-2998 colon
[8] = system: HOP-92 NSCLC
[9] = system: HCT-116 colon
[10] = system: SK-MEL-28 melanoma

| Compound | GI50 [1] | TGI [1] | GI50 [2] | TGI [2] | GI50 [3] | TGI [3] | GI50 [4] | TGI [4] | GI50 [5] | TGI [5] | GI50 [6] | TGI [6] | GI50 [7] | TGI [7] | GI50 [8] | TGI [8] | GI50 [9] | TGI [9] | GI50 [10] | TGI [10] |
| --- | --- | --- | --- | --- | --- | --- | --- | --- | --- | --- | --- | --- | --- | --- | --- | --- | --- | --- | --- | --- |
| CCC[CH2][Sn]1([CH2]CCC)[O]Cc2nc(C)ccc2[O]1 | 12.1 µM | 24.5 µM | 2.95 µM | 12.7 µM | 2.36 µM | 9.03 µM | 3.32 µM | 8.8 µM | 5.05 µM | 17 µM | 12.3 µM | 24.8 µM | 7.86 µM | 21.3 µM | 2.52 µM | 19.2 µM | 12.1 µM | 24.5 µM | 10.6 µM | 22.4 µM |
| OCc1c[nH]c2ccccc12 | 19.3 µM | 46.1 µM | 30.2 µM | 77.4 µM | 15.8 µM | 52.8 µM | 17.4 µM | 32.8 µM | 20.3 µM | 49.3 µM | 20.8 µM | 58.6 µM | 20.2 µM | 41 µM | 9.35 µM | 63.5 µM | 17.2 µM | 31.9 µM | 23.5 µM | 50.1 µM |
| CC[CH2][Sn]([CH2]CC)([O]C(=O)c1cccnc1SC)[O][Sn]([CH2]CC)([CH2]CC)[O]C(=O)c1cccnc1SC | 0.468 µM | 1.24 µM | 0.214 µM | 12.1 µM | 0.266 µM | 0.801 µM | 0.299 µM | 0.823 µM | 0.583 µM | 1.85 µM | 2.09 µM | 3.64 µM | 0.642 µM | 1.92 µM | 0.342 µM | 0.829 µM | 0.452 µM | 1.48 µM | 0.296 µM | 0.711 µM |
| O=C(c1ccccc1)c1nnc(C(=O)c2ccccc2)nn1 | – | > 344 µM | – | 128 µM | – | > 344 µM | – | > 344 µM | – | > 344 µM | – | > 344 µM | – | > 344 µM | – | > 344 µM | – | > 344 µM | – | > 344 µM |
| O=c1/c(=C/c2ccco2)sc2nc3ccccc3n12 | > 100 µM | > 100 µM | – | > 10 µM | > 100 µM | > 100 µM | > 100 µM | > 100 µM | > 100 µM | > 100 µM | – | > 10 µM | > 100 µM | > 100 µM | – | > 10 µM | > 100 µM | > 100 µM | > 100 µM | > 100 µM |
| N#Cc1ccc(O)c(C2=NCC(c3cccc(Oc4ccccc4)c3)O2)c1 (stereo not drawn) | 1.83 µM | 9.27 µM | 0.933 µM | > 100 µM | 0.392 µM | 37.9 µM | 2.41 µM | 24.4 µM | 0.432 µM | 10.8 µM | 2.95 µM | > 100 µM | 0.881 µM | 57.8 µM | 1.81 µM | 37 µM | 0.587 µM | 13.7 µM | 2.09 µM | > 100 µM |
| CCc1ccc(/C=C\c2cc(OC)c(OC)c(OC)c2)cc1 | 0.0163 µM | 0.0443 µM and 0.0546 µM | – | 0.336 µM | 1.02 µM | > 100 µM | 0.0258 µM | 0.66 µM and 0.203 µM | – | 0.206 µM | 16.7 µM | > 100 µM | 0.0577 µM | 0.342 µM and 0.438 µM | 0.0222 µM | 0.233 µM | 0.0187 µM | 0.464 µM and 1.18 µM | 0.0395 µM | > 100 µM |
| COc1cc2c(c(O)c1Br)C(=O)c1c(O)cc(C[C@H](C)O)cc1[C@H]2[C@H]1c2cc(C[C@H](C)O)cc(O)c2C(=O)c2c1cc(OC)c(Br)c2O | 2.66 µM and 3.67 µM | 14.8 µM and 13.6 µM | 3.04 µM and 3.98 µM | 67.5 µM and > 100 µM | 10.6 µM and 28.4 µM | 33.3 µM and 94.6 µM | 6.37 µM and 18.1 µM | 19.6 µM and 44 µM | 15.3 µM and 31.1 µM | 67.5 µM and > 100 µM | 11.1 µM and 17.1 µM | 27.4 µM and 46.5 µM | 8.39 µM and 14.8 µM | 67.5 µM and > 100 µM | 5.31 µM and 9.42 µM | 32.3 µM and 39.6 µM | 3.77 µM and 5.49 µM | 67.5 µM and 63.1 µM | 4.54 µM and 5.6 µM | 32.9 µM and > 100 µM |
| CC(C)C(=O)NC(=S)Nc1ccc([N+](=O)[O-])cc1C#N | – | > 100 µM | – | > 100 µM | – | > 100 µM | – | > 100 µM | – | > 100 µM | – | > 100 µM | – | > 100 µM | – | > 100 µM | – | > 100 µM | – | > 100 µM |
| Cc1ccc(NC(=O)c2cccc(N(C)C)c2)cc1NC(=O)c1ccc(O)cc1 | 41 µM | > 100 µM | 31.5 µM | > 100 µM | 52.8 µM | > 100 µM | 14.1 µM | 39.2 µM | 67.3 µM | > 100 µM | > 82.4 µM | > 100 µM | 74.8 µM | > 100 µM | > 52.7 µM | > 100 µM | > 59.4 µM | > 100 µM | > 50.1 µM | > 100 µM |
| CCCn1cnc2c(SCc3ccccc3Cl)nc(N)nc21 | 9.81 µM | 44.8 µM | 2.23 µM | 14.2 µM | 6.43 µM | 44.1 µM | 22.6 µM | 50.9 µM | 20.5 µM | 79.6 µM | 25.7 µM | 91.9 µM | 17.8 µM | 67 µM | 1.44 µM | 23.9 µM | 5.2 µM | 17.5 µM | 27 µM | > 100 µM |
| COc1ccc(-c2cnnc3c(-c4cccc(C(F)(F)F)c4)cnn23)cc1 | 3 µM | > 100 µM | > 100 µM | > 100 µM | 3.3 µM | > 100 µM | 1.43 µM | 79.8 µM | 2.55 µM | 6.45 µM | > 100 µM | > 100 µM | > 100 µM | > 100 µM | – | 2.85 µM | 3.46 µM | > 100 µM | 3.14 µM | > 100 µM |
| CC[C@]1(O)C[C@@H]2CN(CCc3c([nH]c4ccccc34)[C@@](C(=O)OC)(c3cc4c(cc3OC)N(C)[C@H]3[C@@](O)(C(=O)OC)[C@H](OC(C)=O)[C@]5(CC)C=CCN6CC[C@]43[C@@H]65)C2)C1 | < 0.01 µM | < 0.01 µM | < 0.01 µM | 19.6 µM | < 0.01 µM | 4.65 µM | < 0.0149 µM | 20.2 µM | < 0.01 µM | < 0.01 µM | < 0.01 µM | 87.7 µM | < 0.01 µM | 7.74 µM | < 0.01 µM | – | < 0.01 µM | 15 µM | 11.1 µM | 28 µM |
